Reference: patent US20220211678A1, “USES OF (+)-A-DIHYDROTETRABENAZINE IN METHODS OF TREATING MOVEMENT DISORDER” (ADEPTIO PHARMACEUTICALS LIMITED, priority 2017, published 2022)

Tests used:
[1] = test system: non-amphetamine induced rats; assay: Locomotor activity and stereotypic behaviour in non-amphetamine induced rats, open field arena (Example 2, Study 3); format: in vivo, rat; settings: Study 3, non-induced rats; (+)-α-DHTBZ 2.5 mg/kg or 5 mg/kg, risperidone 1 mg/kg
Protocol: All animal experiments were carried out according to the National Institute of Health (NIH) guidelines for the care and use of laboratory animals, and approved by the National Animal Experiment Board, Finland. Male CD (Charles River Laboratories, Germany) at weight range of 200-250 g (165-200 g upon arrival) were used for the experiments. Animals were housed at a standard temperature (22±1° C.) and in a light-controlled environment (lights on from 7 am to 8 pm) with ad libitum access to food and water.
Locomotor activity of the rats was tested in open field arena. The open field test was performed during the rat light cycle and under a normal lighting evenly distributed to the test chambers. The paths of the rats were recorded by activity monitor (Med. Associates Inc.).
Dosing the vehicle, vehicle-amphetamine, (+)-α-DHTBZ or risperidone was done prior to LMA test. The rats were placed in the centre of the arena, and the path was recorded for 60 minutes.
Animals were grouped as follows: • Group 1: 10 rats treated with Vehicle • Group 2: 10 rats treated with (+)-α-DHTBZ 2.5 mg/kg • Group 3: 10 rats treated with (+)-α-DHTBZ 5 mg/kg • Group 4: 10 rats treated with risperidone 1 mg/kg

[2] = Plasma levels of (+)-α-dihydrotetrabenazine up to 7 hours after oral dosing of human volunteers (Example 1B); format: in vivo; settings: 7.5 mg, 7.5 mg oral
Protocol: (§1) Volunteers 1 and 2 were the same as volunteers 1 and 2 in Example 1A described above. […] Blood sample were taken from all volunteers 1 to 3 at 2, 4, 6 and 7 hours after drug administration. In addition, in all volunteers PET scans were initiated at 6 hours after drug administration and these were stopped at 7 hours after drug administration.

[3] = Plasma levels of (+)-α-dihydrotetrabenazine up to 3 hours after oral dosing of human volunteers (Example 1A); format: in vivo; settings: 7.5 mg oral, 0.5 h
Protocol: […] […] Blood samples were not taken from the fifth volunteer. At 60 minutes after drug administration, PET scans were initiated and these were stopped at 120 minutes after drug administration. The experiment was carried out at dosages of 7.5 mg, 15 mg and 22.5 mg.

VMAT2 = molecular target: T1, VMAT2 (Homo sapiens, UniProt Q05940); assay: % VMAT2 blocking by PET scan 6-7 hours after oral dosing of human volunteers (Example 1B); format: in vivo; settings: for reduction of level of VMAT2 blocking after 6-7 hours compared to 1-2 hours following administration: 7.5 mg
T1 construct: from tissue; host or cells: brain of living human volunteers, measured by PET
T1 sequence (Q05940 whole entry): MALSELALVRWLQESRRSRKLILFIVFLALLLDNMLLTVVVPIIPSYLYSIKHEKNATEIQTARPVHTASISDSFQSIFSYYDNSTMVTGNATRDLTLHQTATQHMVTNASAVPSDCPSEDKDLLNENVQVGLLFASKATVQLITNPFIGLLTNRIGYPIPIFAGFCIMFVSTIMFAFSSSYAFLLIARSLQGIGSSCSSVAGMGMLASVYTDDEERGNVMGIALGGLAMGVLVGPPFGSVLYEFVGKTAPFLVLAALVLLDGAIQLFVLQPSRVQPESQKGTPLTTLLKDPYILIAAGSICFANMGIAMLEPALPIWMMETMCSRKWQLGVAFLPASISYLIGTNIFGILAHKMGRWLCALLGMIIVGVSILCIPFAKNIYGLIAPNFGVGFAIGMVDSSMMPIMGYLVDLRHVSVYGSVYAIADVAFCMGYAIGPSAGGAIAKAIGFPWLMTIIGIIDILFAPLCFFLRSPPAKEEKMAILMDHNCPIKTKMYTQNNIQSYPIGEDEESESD
Description: Complete blocking of VMAT2 is considered undesirable as this can lead to unwanted side effects, such as Parkinsonism. […] The levels of VMAT2 blocking can be determined by competitive binding studies using Positron Emission Tomography (PET). By co-administering a radioactive ligand with the compound of interest at various concentrations, the proportion of binding sites occupied can be determined (see for example, Matthews et al., “Positron emission tomography molecular imaging for drug development”, Br. J. Clin. Pharmacol., 73:2, 175-186). Accordingly, the invention also provides:
as §1

COc1cc2c(cc1OC)[C@H]1C[C@@H](O)[C@H](CC(C)C)CN1CC2 [(+)-α-dihydrotetrabenazine, (R,R,R)-3-isobutyl-9,10-dimethyloxy-1,3,4,5,7,11b-hexahydro-2H-pyrido[2,1-a]isoquinolin-2-ol]
total movement compared to rats treated with the vehicle [1]: comparable
total stereotypic behaviour compared to rats treated with the vehicle [1]: comparable
concentration at 2 h ([2]; subject 1 (112 kg)): 6.01 ng/mL
concentration at 2 h ([2]; subject 2 (76 kg)): 17.5 ng/mL
concentration at 2 h ([2]; subject 3 (76 kg)): 7.92 ng/mL
concentration at 4 h ([2]; subject 1 (112 kg)): 4.54 ng/mL
concentration at 4 h ([2]; subject 2 (76 kg)): 4.54 ng/mL
concentration at 4 h ([2]; subject 3 (76 kg)): 5.57 ng/mL
concentration at 6 h ([2]; subject 1 (112 kg)): 3.65 ng/mL
concentration at 6 h ([2]; subject 2 (76 kg)): 3.65 ng/mL
concentration at 6 h ([2]; subject 3 (76 kg)): 4.84 ng/mL
concentration at 7 h ([2]; subject 1 (112 kg)): 8.7 ng/mL
concentration at 7 h ([2]; subject 2 (76 kg)): 11.7 ng/mL
concentration at 7 h ([2]; subject 3 (76 kg)): 12.8 ng/mL
plasma concentration of (+)-α-dihydrotetrabenazine ([3]; subject 1 (112 kg)): BLQ
plasma concentration of (+)-α-dihydrotetrabenazine ([3]; subject 6 (68 kg)): BLQ
% VMAT2 blocking (VMAT2; 7.5 mg oral, PET scan 6-7 hours after administration, subject 1 (112 kg)): 38%
% VMAT2 blocking (VMAT2; 7.5 mg oral, PET scan 6-7 hours after administration, subject 2 (76 kg)): 65%
% VMAT2 blocking (VMAT2; 7.5 mg oral, PET scan 6-7 hours after administration, subject 3 (76 kg)): 41%
% VMAT2 blocking (VMAT2; 7.5 mg oral, PET scan 6-7 hours after administration, subject 4 (95 kg)): 34%
% VMAT2 blocking (VMAT2; 7.5 mg oral, PET scan 6-7 hours after administration, subject 5 (99 kg)): 36%
reduction of level of VMAT2 blocking after 6-7 hours compared to 1-2 hours following administration (VMAT2; subject 1): 30%
reduction of level of VMAT2 blocking after 6-7 hours compared to 1-2 hours following administration (VMAT2; subject 2): 11%
% VMAT2 blocking (VMAT2; after 6 hours following administration of 7.5 mg): greater than 30%
